Data on 21 compounds can be found in US8455475B2 (Gruenenthal GmbH, priority 2009, dated 2013).

Assay [1] concerns the target T1, human B1R (bradykinin receptor 1) (Homo sapiens, UniProt P46663).
T1 construct: expressed in transfected cells; host or cells: CHO K1 cells
T1 sequence (P46663 1-353): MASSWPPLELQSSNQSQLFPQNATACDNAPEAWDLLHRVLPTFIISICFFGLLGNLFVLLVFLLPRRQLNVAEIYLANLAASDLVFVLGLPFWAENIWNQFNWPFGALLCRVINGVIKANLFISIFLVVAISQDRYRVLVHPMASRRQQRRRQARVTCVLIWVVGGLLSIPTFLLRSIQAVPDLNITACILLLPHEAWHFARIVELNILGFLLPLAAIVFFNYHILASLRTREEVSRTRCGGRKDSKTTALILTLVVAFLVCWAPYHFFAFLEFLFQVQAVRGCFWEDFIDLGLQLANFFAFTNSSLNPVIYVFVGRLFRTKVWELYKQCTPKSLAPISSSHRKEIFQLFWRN
The assay is described as follows: FLIPR Ca2+ assay (Fluo-4) on CHO K1 cells stably transfected with the human B1R gene (hB1R cells): % inhibition at 10 μM / IC50, agonist Lys-Des-Arg9-bradykinin. The assay is classed as cell-based. Conditions: CHO-K1, human B1R. The gist of the method: (§1)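 Peak fluorescence counts read on FLIPR (λex 488, λem 540 nm) after two additions: compound first, then agonist at EC80 after 10–20 min. Human line challenged with Lys-Des-Arg9-bradykinin, rat line with Des-Arg9-bradykinin. Suppression of Ca2+ inflow expressed as % of maximum inhibition.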

Assay [2] has as its target T2, rat B1R (bradykinin receptor 1) (Rattus norvegicus, UniProt P97583).
T2 construct: expressed in transfected cells; host or cells: CHO K1 cells
T2 sequence (P97583 1-337): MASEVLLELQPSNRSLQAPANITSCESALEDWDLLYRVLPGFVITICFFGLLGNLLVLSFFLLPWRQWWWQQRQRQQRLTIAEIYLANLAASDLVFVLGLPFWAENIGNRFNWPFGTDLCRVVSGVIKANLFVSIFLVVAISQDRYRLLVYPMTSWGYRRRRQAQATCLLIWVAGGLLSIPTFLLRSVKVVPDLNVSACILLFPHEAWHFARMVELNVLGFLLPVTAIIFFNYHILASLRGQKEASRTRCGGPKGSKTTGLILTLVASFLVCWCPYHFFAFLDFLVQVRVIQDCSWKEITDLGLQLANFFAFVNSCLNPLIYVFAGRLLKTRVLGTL
The assay is described as follows: FLIPR Ca2+ assay (Fluo-4) on CHO K1 cells stably transfected with the B1R gene of the rat (rB1R cells): % inhibition at 10 μM / IC50, agonist Des-Arg9-bradykinin. The assay is classed as cell-based. The conditions noted are these: CHO-K1, rat B1R. Summed up:
as §1

For `CN(C(=O)c1cccc(C(F)(F)F)c1Cl)C1CCc2ccc(C(=O)N3CCC4(CC3)CCN(c3ccncc3)CC4)cc21` (stereo not drawn) [IND_CC-225, 2-Chloro-N-methyl-N-[6-(9-pyridin-4-yl-3,9-diazaspiro[5.5]undecane-3-carbonyl)-2,3-dihydro-1H-inden-1-yl]-3-(trifluoromethyl)-benzamide], the inhibition – broadly, the change of the read-out against control, counted positive when it falls – at 10 µM turned out to be 71% in assay [1] and 103% in assay [2].
The corresponding values for `CN(C1CCc2ccc(C(=O)N3CCC4(CC3)CCN(c3ccncc3)CC4)cc21)S(=O)(=O)Cc1ccccc1C(F)(F)F` (stereo not drawn) [IND_CC-226, N-Methyl-N-[6-(9-pyridin-4-yl-3,9-diazaspiro[5.5]undecane-3-carbonyl)-2,3-dihydro-1H-inden-1-yl]-1-[2-(trifluoromethyl)-phenyl]-methanesulfonic acid amide] are 98% and 101%.
Regarding `O=C(NC1CCc2ccc(C(=O)N3CCC4(CC3)CCN(c3ccncc3)CC4)cc21)c1cc(F)c(F)cc1Cl` (stereo not drawn) [IND_CC-228, 2-Chloro-4,5-difluoro-N-[6-(9-pyridin-4-yl-3,9-diazaspiro[5.5]undecane-3-carbonyl)-2,3-dihydro-1H-inden-1-yl]-benzamide], the values for the inhibition at 10 µM in assay [1] and in assay [2] were 100% and 104%, respectively.
For `O=C(NC1CCc2ccc(C(=O)N3CCC4(CC3)CCN(c3ccncc3)C4)cc21)c1cc(F)c(F)cc1Cl` (stereo not drawn) [IND_CC-229, 2-Chloro-4,5-difluoro-N-[6-(2-pyridin-4-yl-2,8-diazaspiro[4.5]decane-8-carbonyl)-2,3-dihydro-1H-inden-1-yl]-benzamide], the inhibition at 10 µM in assay [1] was determined as 100%; in assay [2], 102%.
The corresponding values for `CC1(C)Cc2ccc(C(=O)N3CCC4(CC3)CCN(c3ccncc3)CC4)cc2C1NC(=O)c1cc(F)c(F)cc1Cl` (stereo not drawn) [IND_CC-231, 2-Chloro-N-[2,2-dimethyl-6-(9-pyridin-4-yl-3,9-diazaspiro[5.5]undecane-3-carbonyl)-1,3-dihydro-inden-1-yl]-4,5-difluoro-benzamide] are 100% and 102%.
For `O=C(NC1CCc2ccc(C(=O)N3CCC4(CC3)CCN(c3ccncc3)CC4)cc21)c1cccc(C(F)(F)F)c1Cl` (stereo not drawn) [IND_CC-232, 2-Chloro-N-[6-(9-pyridin-4-yl-3,9-diazaspiro[5.5]undecane-3-carbonyl)-2,3-dihydro-1H-inden-1-yl]-3-(trifluoromethyl)-benzamide], the inhibition at 10 µM turned out to be 96% in assay [1] and 101% in assay [2].
Consider `O=C(NC1CCc2ccc(C(=O)N3CCC4(CC3)CCN(c3ccncc3)C4)cc21)c1cccc(C(F)(F)F)c1Cl` (stereo not drawn) [IND_CC-233, 2-Chloro-N-[6-(2-pyridin-4-yl-2,8-diazaspiro[4.5]decane-8-carbonyl)-2,3-dihydro-1H-inden-1-yl]-3-(trifluoromethyl)-benzamide], for which the inhibition at 10 µM was found to be 86% in assay [1] and 98% in assay [2].
Regarding `O=C(c1ccc2c(c1)C(NS(=O)(=O)Cc1ccccc1C(F)(F)F)CC2)N1CCC2(CC1)CCN(c1ccncc1)CC2` (stereo not drawn) [IND_CC-236, N-[6-(9-Pyridin-4-yl-3,9-diazaspiro[5.5]undecane-3-carbonyl)-2,3-dihydro-1H-inden-1-yl]-1-[2-(trifluoromethyl)-phenyl]-methanesulfonic acid amide], the inhibition at 10 µM in assay [1] is 98%; in assay [2] it was 96%.
On to `O=C(c1ccc2c(c1)C(NS(=O)(=O)Cc1ccccc1C(F)(F)F)CC2)N1CCC2(CC1)CCN(c1ccncc1)C2` (stereo not drawn) [IND_CC-237, N-[6-(2-Pyridin-4-yl-2,8-diazaspiro[4.5]decane-8-carbonyl)-2,3-dihydro-1H-inden-1-yl]-1-[2-(trifluoromethyl)-phenyl]-methanesulfonic acid amide], for which the values for the inhibition at 10 µM in assay [1] and in assay [2] were 100% and 98%, respectively.
Regarding `CC1(C)Cc2ccc(C(=O)N3CCC4(CC3)CCN(c3ccncc3)CC4)cc2C1NS(=O)(=O)Cc1ccccc1C(F)(F)F` (stereo not drawn) [IND_CC-238, N-[2,2-Dimethyl-6-(9-pyridin-4-yl-3,9-diazaspiro[5.5]undecane-3-carbonyl)-1,3-dihydro-inden-1-yl]-1-[2-(trifluoromethyl)-phenyl]-methanesulfonic acid amide], the inhibition at 10 µM is 99% in assay [1] and 100% in assay [2].
As to `Cc1cccc(Cl)c1S(=O)(=O)NC1c2cc(C(=O)N3CCC4(CC3)CCN(c3ccncc3)CC4)ccc2CC1(C)C` (stereo not drawn) [IND_CC-240, 2-Chloro-N-[2,2-dimethyl-6-(9-pyridin-4-yl-3,9-diazaspiro[5.5]undecane-3-carbonyl)-1,3-dihydro-inden-1-yl]-6-methyl-benzenesulfonic acid amide], the results for the inhibition at 10 µM in assay [1] and in assay [2] were 95% and 99%, respectively.
The matching figures for `O=C(c1ccc2c(c1)C(NS(=O)(=O)CCc1ccccc1Cl)CC2)N1CCC2(CC1)CCN(c1ccncc1)CC2` (stereo not drawn) [IND_CC-241, 2-(2-Chlorophenyl)-N-[6-(9-pyridin-4-yl-3,9-diazaspiro[5.5]undecane-3-carbonyl)-2,3-dihydro-1H-inden-1-yl]-ethanesulfonic acid amide]: 95% and 101%.
For `CC1(C)Cc2ccc(C(=O)N3CCC4(CC3)CCN(c3ccncc3)CC4)cc2C1NS(=O)(=O)CCc1ccccc1Cl` (stereo not drawn) [IND_CC-242, 2-(2-Chlorophenyl)-N-[2,2-dimethyl-6-(9-pyridin-4-yl-3,9-diazaspiro[5.5]-undecane-3-carbonyl)-1,3-dihydro-inden-1-yl]-ethanesulfonic acid amide], the inhibition at 10 µM in assay [1] worked out at 94%; in assay [2], 101%.
For the compound `CC1(C)CC(NC(=O)c2c(Cl)cccc2C(F)(F)F)c2cc(C(=O)N3CCC4(CC3)CCN(c3ccncc3)CC4)ccc21` (stereo not drawn) [IND_CC-243, 2-Chloro-N-[3,3-dimethyl-6-(3-pyridin-4-yl-3,9-diazaspiro[5.5]undecane-9-carbonyl)-1,2-dihydro-inden-1-yl]-6-(trifluoromethyl)-benzamide], the inhibition at 10 µM was determined as 100% in assay [1] and 99% in assay [2].
As to `CC1(C)CC(NC(=O)c2cc(Cl)ccc2Cl)c2cc(C(=O)N3CCC4(CC3)CCN(c3ccncc3)CC4)ccc21` (stereo not drawn) [IND_CC-244, 2,5-Dichloro-N-[3,3-dimethyl-6-(3-pyridin-4-yl-3,9-diazaspiro[5.5]undecane-9-carbonyl)-1,2-dihydro-inden-1-yl]-benzamide], the inhibition at 10 µM in assay [1] came out at 99%; in assay [2], 103%.
Take `O=C(NC1CCc2ccc(C(=O)N3CCC4(CCN(c5ccncc5)CC4)C3)cc21)c1cc(Cl)ccc1Cl` (stereo not drawn) [IND_CC-245, 2,5-Dichloro-N-[6-(8-pyridin-4-yl-2,8-diazaspiro[4.5]decane-2-carbonyl)-2,3-dihydro-1H-inden-1-yl]-benzamide]: the inhibition at 10 µM in assay [1] came to 100%; in assay [2], 101%.
Take `COc1ccc(C(=O)NC2CC(C)(C)c3ccc(C(=O)N4CCC5(CC4)CCN(c4ccncc4)CC5)cc32)c(Cl)c1` (stereo not drawn) [IND_CC-246, 2-Chloro-N-[3,3-dimethyl-6-(3-pyridin-4-yl-3,9-diazaspiro[5.5]undecane-9-carbonyl)-1,2-dihydro-inden-1-yl]-4-methoxy-benzamide]: the inhibition at 10 µM in assay [1] was determined as 99%; in assay [2], 100%.
The matching figures for `COc1ccc(C(=O)NC2CCc3ccc(C(=O)N4CCC5(CCN(c6ccncc6)CC5)C4)cc32)c(Cl)c1` (stereo not drawn) [IND_CC-247, 2-Chloro-4-methoxy-N-[6-(8-pyridin-4-yl-2,8-diazaspiro[4.5]decane-2-carbonyl)-2,3-dihydro-1H-inden-1-yl]-benzamide]: 99% and 102%.
For the compound `Cc1ccc(F)c(C(=O)NC2CC(C)(C)c3ccc(C(=O)N4CCC5(CC4)CCN(c4ccncc4)CC5)cc32)c1Cl` (stereo not drawn) [IND_CC-248, 2-Chloro-N-[3,3-dimethyl-6-(3-pyridin-4-yl-3,9-diazaspiro[5.5]undecane-9-carbonyl)-1,2-dihydro-inden-1-yl]-6-fluoro-3-methyl-benzamide], the results for the inhibition at 10 µM in assay [1] and in assay [2] were 90% and 102%, respectively.
As to `Cc1ccc(F)c(C(=O)NC2CCc3ccc(C(=O)N4CCC5(CCN(c6ccncc6)CC5)C4)cc32)c1Cl` (stereo not drawn) [IND_CC-249, 2-Chloro-6-fluoro-3-methyl-N-[6-(8-pyridin-4-yl-2,8-diazaspiro[4.5]decane-2-carbonyl)-2,3-dihydro-1H-inden-1-yl]-benzamide], the inhibition at 10 µM in assay [1] and in assay [2] was 99% each time.
On to `CC1(C)CC(NC(=O)c2cc(C(F)(F)F)ccc2Cl)c2cc(C(=O)N3CCC4(CC3)CCN(c3ccncc3)CC4)ccc21` (stereo not drawn) [IND_CC-250, 2-Chloro-N-[3,3-dimethyl-6-(3-pyridin-4-yl-3,9-diazaspiro[5.5]undecane-9-carbonyl)-1,2-dihydro-inden-1-yl]-5-(trifluoromethyl)-benzamide], for which the inhibition at 10 µM amounted to 94% in assay [1] and 100% in assay [2].
